Source: US9353076B2, “Crystal form of cabazitaxel and preparation method thereof” (Chongqing Taihao Pharmaceutical Co., Ltd., priority 2012, dated 2016)

Assay: Accelerated stability test for a novel crystalline form of Cabazitaxel
Assay type: physicochemical

Row | Substance | Content (%) (0 month) | Moisture (%) (0 month) | The other maximum individual impurity (%) (0 month) | Total impurity (%) (0 month) | Content (%) (1 month) | Moisture (%) (1 month) | The other maximum individual impurity (%) (1 month) | Total impurity (%) (1 month) | Content (%) (2 months) | Moisture (%) (2 months) | The other maximum individual impurity (%) (2 months) | Total impurity (%) (2 months) | Content (%) (3 months) | Moisture (%) (3 months) | The other maximum individual impurity (%) (3 months) | Total impurity (%) (3 months) | Content (%) (6 months) | Moisture (%) (6 months) | The other maximum individual impurity (%) (6 months) | Total impurity (%) (6 months)
1 | 4-acetoxy-2α-benzoyloxy-5β,20-epoxy-1-hydroxy-7β,10β-dimethoxy-9-oxo-11-taxadiene-13α-yl(2R,3S)-3-tert-butoxycarbonylamino-2-hydroxy-3-phenyl-propionate [crystalline form J of Cabazitaxel] | 99.8 | 0.40 | 0.08 | 0.25 | 99.7 | 0.44 | 0.07 | 0.25 | 99.6 | 0.46 | 0.07 | 0.28 | 99.6 | 0.50 | 0.08 | 0.26 | 99.5 | 0.48 | 0.08 | 0.28
2 | 4-acetoxy-2α-benzoyloxy-5β,20-epoxy-1-hydroxy-7β,10β-dimethoxy-9-oxo-11-taxadiene-13α-yl(2R,3S)-3-tert-butoxycarbonylamino-2-hydroxy-3-phenyl-propionate [crystalline form G of Cabazitaxel] | 99.4 | 1.92 | 0.05 | 0.17 | 99.4 | 1.96 | 0.05 | 0.16 | 99.4 | 1.99 | 0.05 | 0.17 | 99.3 | 2.03 | 0.05 | 0.16 | 99.1 | 2.09 | 0.05 | 0.16
3 | 4-acetoxy-2α-benzoyloxy-5β,20-epoxy-1-hydroxy-7β,10β-dimethoxy-9-oxo-11-taxadiene-13α-yl(2R,3S)-3-tert-butoxycarbonylamino-2-hydroxy-3-phenyl-propionate [crystalline form I of Cabazitaxel] | 99.7 | 0.45 | 0.06 | 0.21 | 99.6 | 0.47 | 0.06 | 0.20 | 99.7 | 0.50 | 0.05 | 0.20 | 99.6 | 0.54 | 0.06 | 0.21 | 99.5 | 0.51 | 0.06 | 0.22
